Numbered stars: 1 amine (or outer) side, 2 acyl side, 3 side chain; on linkers, the order of the positions; unused ones are H or OH. Bridge positions count the residues as written; N and C are the ends. Square brackets hold non-standard residues; d marks the D form. Peptide text beside a SMILES is read from it. * marks the point of attachment. TBMB(SCH2CH2NH-DOTA) = O=C(O)CN1CCN(CC(=O)O)CCN(CC(=O)NCCSCc2cc(C[*:1])cc(C[*:2])c2)CCN(CC(=O)O)CC1; X3 = NC(=O)[C@H](CCCCNC(=O)CN1CCN(CC(=O)O)CCN(CC(=O)O)CCN(CC(=O)O)CC1)NC(=O)CCC(=O)NCCCOCCOCCOCCCN*; NH(CH2)3NH(O2Oc(DOTA)) = O=C(O)CN1CCN(CC(=O)O)CCN(CC(=O)NCCOCCOCC(=O)NCCCN*)CCN(CC(=O)O)CC1; mXylylene = c1cc(C[*:1])cc(C[*:2])c1; X41 = NCCCCCC(=O)NCCCOCCOCCOCCCN*; X51 = O=C(CN1CCC(N[*:1])CC1)[*:2]; Suc = O=C(CCC(=O)[*:2])[*:1]; X18 = NCCNCC(CNCCN)C(=O)*; Nle = CCCC[C@H](N)C(=O)O; Hexanoyl = CCCCCC(=O)*
How the values were obtained:
[1] = biological target: T1, FAP-expressing human WI-38 fibroblasts (Homo sapiens, UniProt Q12884); assay: Competitive FACS binding assay; conditions: pIC50 Category (FACS), competition with 3 nM Cy5-labeled compound, 4° C., 1 hour
T1 construct: FAP-expressing human WI-38 fibroblasts (ECACC) were cultured in EMEM; host or cells: WI-38 human fibroblasts
T1 sequence (Q12884 1-760): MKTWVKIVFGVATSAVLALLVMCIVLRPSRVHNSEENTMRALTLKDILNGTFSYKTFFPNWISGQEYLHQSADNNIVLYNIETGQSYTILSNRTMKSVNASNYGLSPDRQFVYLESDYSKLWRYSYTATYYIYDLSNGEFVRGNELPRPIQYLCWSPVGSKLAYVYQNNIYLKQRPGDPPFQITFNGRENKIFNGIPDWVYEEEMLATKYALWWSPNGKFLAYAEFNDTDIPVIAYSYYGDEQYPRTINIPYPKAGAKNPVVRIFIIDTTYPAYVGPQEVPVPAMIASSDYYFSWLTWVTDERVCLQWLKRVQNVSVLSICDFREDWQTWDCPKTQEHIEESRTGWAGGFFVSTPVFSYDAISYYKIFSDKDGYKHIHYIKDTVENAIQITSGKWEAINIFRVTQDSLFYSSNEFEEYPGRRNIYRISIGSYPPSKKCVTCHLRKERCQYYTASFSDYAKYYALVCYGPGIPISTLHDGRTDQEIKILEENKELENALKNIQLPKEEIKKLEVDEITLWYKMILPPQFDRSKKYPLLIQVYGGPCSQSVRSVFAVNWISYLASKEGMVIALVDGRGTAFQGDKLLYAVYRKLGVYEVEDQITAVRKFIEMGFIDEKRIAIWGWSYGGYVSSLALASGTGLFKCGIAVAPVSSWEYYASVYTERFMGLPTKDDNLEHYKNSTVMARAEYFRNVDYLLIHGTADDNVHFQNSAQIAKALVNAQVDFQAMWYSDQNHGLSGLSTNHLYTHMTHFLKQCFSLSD
Description: Cells were analyzed in an Attune NxT flow cytometer. […]

Human recombinant FAP = biological target: T2, Human recombinant FAP (Homo sapiens, UniProt Q12884); assay: FRET-based FAP protease activity assay; type: biochemical; parameters: purchased R&D systems 3715-SE; conditions: pIC50 Category (Activity), FRET substrate, 37° C.
T2 sequence (Q12884 1-760): T1 sequence (Q12884 1-760)

**Q.** Which results are given for CCCCCC(=O)N[C@H]1CSCc2cccc(c2)CSC[C@@H](C(=O)N[C@@H](CC(=O)O)C(N)=O)NC(=O)[C@H](Cc2ccccc2)NC(=O)[C@H](CCC(=O)NCCCNC(=O)COCCOCCNC(=O)CN2CCN(CC(=O)O)CCN(CC(=O)O)CCN(CC(=O)O)CC2)NC(=O)[C@H]([C@@H](C)O)NC(=O)[C@@H]2CCCN2C(=O)[C@@H]2CCCN2C1=O [3BP-3473, Hex-[Cys(3MeBn)-Pro-Pro-Thr-Glu(NH-Apr-O2O-DOTA')-Phe-Cys]-Asp-NH2] (Hexanoyl-CPPTE(NH(CH2)3NH(O2Oc(DOTA)))FCD-NH2; linker 1-7 via mXylylene)?
**A.** IC50 ([1]; WI-38 fibroblasts): 100 to 794 nM; IC50 (Human recombinant FAP; recombinant human FAP): 100 to 794 nM

**Q.** With CCCCCC(=O)N[C@H]1CSCc2cc(CSCCNC(=O)CN3CCN(CC(=O)O)CCN(CC(=O)O)CCN(CC(=O)O)CC3)cc(c2)CSC[C@@H](C(=O)N[C@@H](CC(=O)O)C(=O)NCCCOCCOCCOCCCNC(=O)CCC(=O)N[C@@H](CCCCNC(=O)CN2CCN(CC(=O)O)CCN(CC(=O)O)CCN(CC(=O)O)CC2)C(N)=O)NC(=O)[C@H](Cc2ccccc2)NC(=O)[C@H](CCC(N)=O)NC(=O)[C@H]([C@@H](C)O)NC(=O)[C@@H]2CCCN2C(=O)[C@@H]2CCCN2C1=O [3BP-4391, Hex-[Cys(tMeBn(DOTA-AET))-Pro-Pro-Thr-Gln-Phe-Cys]-Asp-Ttds-Lys(DOTA)-NH2] (Hexanoyl-CPPTQFCD-X3; linker 1-7 via TBMB(SCH2CH2NH-DOTA)) as the compound, how does the IC50 [1] read?
**A.** < 10 nM

**Q.** And the IC50 (Human recombinant FAP)?
**A.** < 10 nM

**Q.** How did the IC50 [1] turn out when CCCCCC(=O)N[C@@H]1CSCc2cc(CSCCNC(=O)CN3CCN(CC(=O)O)CCN(CC(=O)O)CCN(CC(=O)O)CC3)cc(c2)CSC[C@@H](C(=O)O)NC(=O)[C@H](Cc2ccccc2)NC(=O)[C@H](CCC(N)=O)NC(=O)[C@H]([C@@H](C)O)NC(=O)[C@@H]2CCCN2C(=O)[C@@H]2CCCN2C1=O [3BP-4109, Hex-[D-Cys-(tMeBn(DOTA-AET))-Pro-Pro-Thr-Gln-Phe-Cys]-OH] was run?
**A.** < 10 nM

**Q.** What about the IC50 (Human recombinant FAP) of the same compound?
**A.** < 10 nM

**Q.** What does the source list for CSCC[C@H](NC(C)=O)C(=O)N[C@H]1CSCc2cccc(c2)CSC[C@@H](C(=O)N[C@@H](CC(=O)O)C(=O)N[C@@H](Cc2c[nH]cn2)C(=O)N[C@@H](Cc2ccccc2)C(N)=O)NC(=O)[C@H](Cc2ccccc2)NC(=O)[C@H](CCC(=O)O)NC(=O)[C@H]([C@@H](C)O)NC(=O)[C@@H]2CCCN2C(=O)[C@@H]2CCCN2C1=O [3BP-3199, Ac-Met-[Cys(3MeBn)-Pro-Pro-Thr-Glu-Phe-Cys]-Asp-His-Phe-NH2] (Ac-MCPPTEFCDHF-NH2; linker 2-8 via mXylylene)?
**A.** IC50 ([1]; WI-38 fibroblasts): 100 to 794 nM; IC50 (Human recombinant FAP; recombinant human FAP): 10 to 79.4 nM

**Q.** Which results are given for CCCCCC(=O)N[C@H]1CSCc2cccc(c2)CSC[C@@H](C(=O)O)NC(=O)[C@H](Cc2ccccc2)NC(=O)[C@H](CCC(N)=O)NC(=O)[C@H]([C@@H](C)O)NC(=O)[C@@H]2CCCN2C(=O)[C@@H]2CCCN2C1=O [3BP-4186, Hex-[Cys-(3MeBn)-Pro-Pro-Thr-Gln-Phe-Cys]-OH]?
**A.** IC50 [1]: 10 to 79.4 nM; IC50 (Human recombinant FAP): 10 to 79.4 nM

**Q.** How did the IC50 ([1]; WI-38 fibroblasts) turn out when CSCC[C@H](NC(C)=O)C(=O)N[C@H]1CSCc2cccc(c2)CSC[C@@H](C(=O)N[C@@H](CC(=O)O)C(=O)N[C@@H](Cc2c[nH]cn2)C(=O)N[C@@H](Cc2ccccc2)C(=O)N[C@@H](CCCNC(=N)N)C(=O)N[C@@H](CC(=O)O)C(N)=O)NC(=O)[C@H](Cc2ccccc2)NC(=O)[C@H](CCC(=O)O)NC(=O)[C@H]([C@@H](C)O)NC(=O)[C@@H]2CCCN2C(=O)[C@@H](C)NC1=O [3BP-3215, Ac-Met-[Cys(3MeBn)-ala-Pro-Thr-Glu-Phe-Cys]-Asp-His-Phe-Arg-Asp-NH2] (Ac-MC[dA]PTEFCDHFRD-NH2; linker 2-8 via mXylylene) was run?
**A.** 100 to 794 nM

**Q.** And the IC50 (Human recombinant FAP; recombinant human FAP)?
**A.** 100 to 794 nM

**Q.** What does the source list for CCCC[C@H](NC(=O)CN1CCC(NC(=O)C(CNCCN)CNCCN)CC1)C(=O)N[C@H]1CSCc2cccc(c2)CSC[C@@H](C(=O)O)NC(=O)[C@H](Cc2ccccc2)NC(=O)[C@H](CCC(=O)O)NC(=O)[C@H]([C@@H](C)O)NC(=O)[C@@H]2CCCN2C(=O)[C@@H]2CCCN2C1=O [3BP-4220, N4Ac-APAc-Nle-[Cys-(3MeBn)-Pro-Pro-Thr-Glu-Phe-Cys]-OH] (X18-[X51][Nle]CPPTEFC-OH; linker 3-9 via mXylylene)?
**A.** IC50 [1]: > 1000 nM; IC50 (Human recombinant FAP): > 1000 nM

**Q.** For CCCC[C@H](NC(=O)CCC(=O)NCCCOCCOCCOCCCNC(=O)CCCCCN)C(=O)N[C@H]1CSCc2cccc(c2)CSC[C@@H](C(=O)N[C@@H](CC(=O)O)C(N)=O)NC(=O)[C@H](Cc2ccccc2)NC(=O)[C@H](CCC(N)=O)NC(=O)[C@H]([C@@H](C)O)NC(=O)[C@@H]2CCCN2C(=O)[C@@H]2CCCN2C1=O [3BP-3980, H-Ahx-Ttds-Nle-[Cys-(3MeBn)-Pro-Pro-Thr-Gln-Phe-Cys]-Asp-NH2] ({X41-Suc}-[Nle]CPPTQFCD-NH2; linker 2-8 via mXylylene), which IC50 [1] is on record?
**A.** < 10 nM

**Q.** What about the IC50 (Human recombinant FAP) of the same compound?
**A.** < 10 nM
